Usually inhibition stands for how much of the control response was suppressed.

We go through ten molecules from patent US12030881B2, “Ion channel modulators” (PRAXIS PRECISION MEDICINES, INC., priority 2019, dated 2024).

Molecules are shown by their SMILES.

This test deals with T1, INaL v1.6 (Nav late current, recombinant sodium channels) (Homo sapiens, UniProt Q9UQD0).
T1 construct: expressed in transfected cells; host or cells: HEK-293
T1 sequence (Q9UQD0 whole entry): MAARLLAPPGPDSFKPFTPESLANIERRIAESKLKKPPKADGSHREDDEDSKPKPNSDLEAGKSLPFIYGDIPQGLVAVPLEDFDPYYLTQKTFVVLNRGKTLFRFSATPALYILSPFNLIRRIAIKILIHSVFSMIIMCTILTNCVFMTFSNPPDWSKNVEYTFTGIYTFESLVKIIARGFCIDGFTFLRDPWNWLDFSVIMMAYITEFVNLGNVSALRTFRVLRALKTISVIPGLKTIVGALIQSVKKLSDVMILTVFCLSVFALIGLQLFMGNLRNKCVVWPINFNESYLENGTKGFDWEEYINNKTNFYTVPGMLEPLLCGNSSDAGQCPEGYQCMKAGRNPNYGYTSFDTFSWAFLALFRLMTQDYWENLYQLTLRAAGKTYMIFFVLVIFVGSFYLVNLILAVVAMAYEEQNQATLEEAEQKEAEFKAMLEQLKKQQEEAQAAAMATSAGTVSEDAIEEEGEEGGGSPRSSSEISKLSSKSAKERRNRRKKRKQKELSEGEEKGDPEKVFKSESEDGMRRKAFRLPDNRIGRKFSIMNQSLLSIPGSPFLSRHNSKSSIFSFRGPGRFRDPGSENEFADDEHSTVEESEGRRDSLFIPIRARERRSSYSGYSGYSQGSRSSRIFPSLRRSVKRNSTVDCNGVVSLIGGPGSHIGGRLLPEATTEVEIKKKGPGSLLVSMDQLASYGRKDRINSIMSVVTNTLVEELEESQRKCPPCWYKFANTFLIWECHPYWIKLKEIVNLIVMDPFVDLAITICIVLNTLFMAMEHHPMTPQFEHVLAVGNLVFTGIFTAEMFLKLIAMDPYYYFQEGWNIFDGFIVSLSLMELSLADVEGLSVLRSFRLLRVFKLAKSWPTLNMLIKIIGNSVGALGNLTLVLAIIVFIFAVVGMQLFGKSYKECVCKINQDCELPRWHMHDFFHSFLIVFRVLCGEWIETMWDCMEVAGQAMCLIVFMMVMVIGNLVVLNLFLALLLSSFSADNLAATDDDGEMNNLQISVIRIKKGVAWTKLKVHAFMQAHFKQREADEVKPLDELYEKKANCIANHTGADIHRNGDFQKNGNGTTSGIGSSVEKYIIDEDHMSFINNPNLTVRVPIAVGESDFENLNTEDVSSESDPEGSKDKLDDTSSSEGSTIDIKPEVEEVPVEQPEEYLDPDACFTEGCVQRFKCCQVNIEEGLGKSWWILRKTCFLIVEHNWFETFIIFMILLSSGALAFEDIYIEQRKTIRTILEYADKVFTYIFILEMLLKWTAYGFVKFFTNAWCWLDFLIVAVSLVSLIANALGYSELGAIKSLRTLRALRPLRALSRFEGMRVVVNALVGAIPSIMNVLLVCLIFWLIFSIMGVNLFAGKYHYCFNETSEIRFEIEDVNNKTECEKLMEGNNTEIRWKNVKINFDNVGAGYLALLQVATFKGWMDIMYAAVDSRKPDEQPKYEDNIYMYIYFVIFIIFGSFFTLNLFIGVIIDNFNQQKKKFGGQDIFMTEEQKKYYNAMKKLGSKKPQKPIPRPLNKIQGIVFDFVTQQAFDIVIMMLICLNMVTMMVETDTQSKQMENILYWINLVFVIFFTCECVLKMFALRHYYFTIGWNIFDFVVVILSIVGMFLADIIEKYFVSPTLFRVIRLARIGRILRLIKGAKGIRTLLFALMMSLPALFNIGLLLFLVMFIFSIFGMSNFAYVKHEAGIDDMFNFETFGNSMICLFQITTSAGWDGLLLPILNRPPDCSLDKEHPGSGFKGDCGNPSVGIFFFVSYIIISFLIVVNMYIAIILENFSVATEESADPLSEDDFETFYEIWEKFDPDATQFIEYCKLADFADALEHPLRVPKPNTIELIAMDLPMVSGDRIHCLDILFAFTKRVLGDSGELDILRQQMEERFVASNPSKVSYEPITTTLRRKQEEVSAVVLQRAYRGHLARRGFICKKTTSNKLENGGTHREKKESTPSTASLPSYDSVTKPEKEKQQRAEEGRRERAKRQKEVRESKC
In words: PatchXpress electrophysiology, ATX-II evoked Nav late current (INaL) in HEK-293 cells expressing recombinant sodium channels. Format: cell-based. The conditions noted are these: HEK293, compound at 1 μM, late current evoked by ATX-II 300 nM, steady state block. The protocol: Functional characterization of exemplary compounds to modulate voltage gated sodium currents was accomplished using the PatchXpress™ high throughput electrophysiology platforms (Molecular Devices, Sunnyvale, CA). HEK-293 cells expressing recombinant sodium channels were grown in DMEM/high-glucose Dulbecco's modified, 10% FBS, 2 mM sodium pyruvate, and G418. Nav channel expressing cells were grown to 50%-80% confluency and harvested by trypsinization. Trypsinized cells were washed and resuspended in extracellular buffer at a concentration of 1×10^6 cells/ml. The onboard liquid handling facility of the PatchXpress was used for dispensing cells and application of test compounds. Nav late currents were evoked by the application of ATX-II, 300 nM. Currents were evoked by depolarizing pulses to 0 mV for 200 ms from a non-inactivating holding potential (e.g., −120 mV to −150 mV) at a frequency of 0.1 Hz. Late current amplitude and stability were determined by analyzing the mean current amplitude over the 175-195 msec region of the 200 msec test pulse. Following steady state block with exemplary compounds (e.g., as described herein) at 1 μM, a Na free solution containing an impermeant cation (e.g., Choline or NDMG) was added for determination of the 0 current level. Late current amplitudes for each test condition were determined from the mean of the 175-195 msec region of the 200 msec test pulse. Percent inhibition of steady state currents was calculated as (compound-baseline)/(control-baseline)*100, where control represents INaL recorded in the absence of compound.
For the molecule `C[C@H](Oc1ncc(-c2ccc3nnc(C(F)(F)F)n3c2)cc1F)C(F)(F)F` [Example 1, 6-[5-fluoro-6-[(1S)-2,2,2-trifluoro-1-methyl-ethoxy]-3-pyridyl]-3-(trifluoromethyl)-[1,2,4]triazolo[4,3-a]pyridine], the inhibition at 1 µM was above 75%. For `C[C@@H](Oc1ncc(-c2ccc3nnc(C(F)(F)F)n3c2)cc1F)C(F)(F)F` [Example 2, 6-[5-fluoro-6-[(1R)-2,2,2-trifluoro-1-methyl-ethoxy]-3-pyridyl]-3-(trifluoromethyl)-[1,2,4]triazolo[4,3-a]pyridine] the value was above 75%. For `C[C@@H](Oc1ncc(-c2ccc3nnc(C(F)F)n3c2)cc1F)C(F)(F)F` [Example 3, 3-(difluoromethyl)-6-[5-fluoro-6-[(1R)-2,2,2-trifluoro-1-methyl-ethoxy]-3-pyridyl]-[1,2,4]triazolo[4,3-a]pyridine] the value was above 75%; for `C[C@H](Oc1ncc(-c2ccc3nnc(C(F)F)n3c2)cc1F)C(F)(F)F` [Example 4, 3-(difluoromethyl)-6-[5-fluoro-6-[(1S)-2,2,2-trifluoro-1-methyl-ethoxy]-3-pyridyl]-[1,2,4]triazolo[4,3-a]pyridine], above 75%. For `CC(C)(Oc1ncc(-c2ccc3nnc(C(F)F)n3c2)cc1F)C(F)(F)F` [Example 5, 3-(difluoromethyl)-6-[5-fluoro-6-(2,2,2-trifluoro-1,1-dimethyl-ethoxy)-3-pyridyl]-[1,2,4]triazolo[4,3-a]pyridine], the inhibition at 1 µM is above 75%. With `CC(C)(Oc1ncc(-c2ccc3nnc(C(F)(F)F)n3c2)cc1F)C(F)(F)F` [Example 6, 6-[5-fluoro-6-(2,2,2-trifluoro-1,1-dimethyl-ethoxy)-3-pyridyl]-3-(trifluoromethyl)-[1,2,4]triazolo[4,3-a]pyridine], the inhibition at 1 µM was above 75%. With `Fc1cc(-c2ccc3nnc(C(F)(F)F)n3c2)cnc1OC1(C(F)(F)F)CCC1` [Example 7, 6-[5-fluoro-6-[1-(trifluoromethyl)cyclobutoxy]-3-pyridyl]-3-(trifluoromethyl)-[1,2,4]triazolo[4,3-a]pyridine] the figure was above 75%. Consider `Fc1cc(-c2ccc3nnc(C(F)(F)F)n3c2)cnc1OC1(C(F)(F)F)COC1` [Example 8, 6-[5-fluoro-6-[3-(trifluoromethyl)oxetan-3-yl]oxy-3-pyridyl]-3-(trifluoromethyl)-[1,2,4]triazolo[4,3-a]pyridine], for which the inhibition at 1 µM is 50 to 75%. As to `Fc1cc(-c2ccc3nnc(C(F)F)n3c2)cnc1OCC(F)(F)F` [Example 9, 3-(difluoromethyl)-6-[5-fluoro-6-(2,2,2-trifluoroethoxy)-3-pyridyl]-[1,2,4]triazolo[4,3-a]pyridine], the inhibition at 1 µM lay within 50 to 75%. For `Fc1cc(-c2ccc3nnc(C(F)(F)F)n3c2)cnc1OCC(F)(F)F` [Example 10, 6-[5-fluoro-6-(2,2,2-trifluoroethoxy)-3-pyridyl]-3-(trifluoromethyl)-[1,2,4]triazolo[4,3-a]pyridine] the value was above 75%.
